Assay results: PubChem BioAssay AID1508591
Where a SMILES comes first, the peptide text is derived from it. [ ]: non-standard residue; d: D form. ξ: configuration not given here. ξLac(3-iPr) = CC(C)CC(O)C(=O)O; NMeV = CN[CH](C(=O)O)C(C)C; NMeA = CN[CH](C)C(=O)O; βAla = NCCC(=O)O

Conditions: rat; liver microsomes; pH 7.4; 15.0 min; 1.0 µM

Going from `Cc1ccc(-c2nc3ccccc3o2)cc1NC(=O)COc1ccccc1` to `COc1cccc(S(=O)(=O)Nc2cnccc2C(=O)Nc2nc(-c3ccccc3)cs2)c1`, the half-life rises from 3.5 min to 6.7 min (1.9-fold).

`COC(=O)c1ccnc(NC(=S)N2CCN(c3cccc(C(F)(F)F)c3)CC2)c1` and `CNC(=O)c1cccc(-c2cnc(Nc3cccc(C(F)(F)F)c3)c3c2CCO3)c1` cannot be ordered by half-life: over 30 min for the first, over 30 min for the second.

Going from `Fc1ccc(-c2ccc(Nc3nc(-c4ccncc4)nc4ccccc34)cc2F)c(Cl)c1` to `Fc1ccc(Nc2cc(-c3ccccc3)nc(-c3ccncc3)n2)cc1F`, the half-life rises from 25 min to over 30 min.

`O=[S+]([O-])(Nc1ccc(N2CCNCC2)cc1)c1ccc(NCc2ccc(Br)cc2O)cc1` and `COc1cccc(CNc2ccc(S(=O)(=O)Nc3ccc(N4CCNCC4)cc3)cc2)c1O` cannot be ordered by half-life: over 30 min for the first, over 30 min for the second.

Going from `O=C(Nc1ccc(F)cc1F)c1cc(-c2ccc[nH]2)n[nH]1` to `Oc1ccc(CNc2ccc(C(F)(F)F)cc2F)c2cccnc12`, the half-life falls from 16.7 min to 5.53 min (3-fold).

First: C#CCNC(=O)c1nc(-c2ccc([S+](C)(=O)[O-])cc2)c2ccccn12
Second: COC(=O)c1ccc(NC(=O)c2nc3ccccc3n(C)c2=O)cc1
The half-life of the first is higher: over 30 min for the first, 2.98 min for the second.

`O=C(O)c1ccc(Nc2nc(-c3cc4ccccc4oc3=O)cs2)cc1O` and `O=C(O)Cn1c(C(=O)Nc2nc(-c3ccccc3Cl)cs2)cc2ccccc21` cannot be ordered by half-life: over 30 min for the first, over 30 min for the second.

Going from `N#Cc1ccc(S(=O)(=O)Nc2cnccc2C(=O)Nc2nc(-c3ccccc3)cs2)cc1` to `Cc1ccc(S(=O)(=O)Nc2cnccc2C(=O)Nc2nc(-c3cc4ccccc4o3)cs2)cc1`, the half-life falls from over 30 min to 20 min.

Going from `CSc1ccc(/C=C/c2nc3ccccc3n2S(=O)(=O)c2cccc(Cl)c2)cc1` to `CSc1ccc(/C=C/c2nc3ccccc3n2S(=O)(=O)c2ccc(Br)cc2)cc1`, the half-life rises from 3.54 min to 6.3 min (1.8-fold).

`CCC(C)C1NC(=O)C2CCCN2C(=O)C(CC(C)C)OC(=O)CCNC(=O)C(C)N(C)C(=O)C(C(C)C)N(C)C1=O` (configuration not stated) (cyclo([ξLac(3-iPr)]PI[NMeV][NMeA][βAla]); configuration not given here) and `CCCCCn1c(=O)[nH]c2cc(C(=O)NCCCN3CCC(C)CC3)ccc2c1=O` are within 1.5-fold of each other in half-life: 18.1 min for the first, 16 min for the second.

First: Cn1c(=O)c2c(-c3ccc(Br)cc3)n(CCc3ccccc3)cc2n(C)c1=O
Second: O=S(=O)(c1ccccc1)N1CCN(c2nc(-c3ccc(Br)cc3)cs2)CC1
The half-life of the first is 23-fold lower: 1.23 min for the first, 27.7 min for the second.

Compared with `Cc1ccccc1C(=O)NC1CCN(c2ccc3nnc(C4CC4)n3n2)CC1`, `CC1=C(C(=O)NC2CCCCC2)C(c2ccccc2Br)N=C(Nc2nc3ccccc3o2)N1` (configuration not stated) is lower in half-life: over 30 min for the first, 7.4 min for the second.

Going from `O=C1Nc2ccccc2/C1=C/c1cccc(C(=O)O)c1` to `Cc1c(C)n(Cc2ccccc2)c2ccc(C(=O)OCCN(C)C)cc12`, the half-life falls from over 30 min to 1.78 min.

Going from `CC(C)Oc1cccc(-c2cnc(N3CCC(C(N)=O)CC3)s2)c1` to `CC(=O)C1CCN(c2ncc(-c3cccc(N(C)C)c3)s2)CC1`, the half-life falls from 23 min to 2.51 min (9.2-fold).

Going from `CC[C@@](C)(Nc1ccnc(-c2c[nH]c3ncccc23)n1)C(=O)NCC(F)(F)F` to `Fc1cnc(-c2ccccc2C(F)F)nc1NCc1ccc(-c2cccnc2)cc1`, the half-life falls from 27.8 min to 7.1 min (3.9-fold).

First: Cc1cccc(-n2cnc3cc(C(=O)N4CCCC(C(C)C)C4)ccc32)c1 (configuration not stated)
Second: CC1=Nc2cc(C(=O)NC3CCCC3)ccc2Sc2ccc(C)cc21
The half-life of the first is 1.8-fold lower: 1.8 min for the first, 3.31 min for the second.

`CC(C)(N)C(=O)N[C@H](COCc1ccccc1)C(=O)N1CCC2(CC1)CN(S(C)(=O)=O)c1ccccc12` and `OC(CCN1CCCCC1)c1ccc(-c2ccccc2)cc1` (configuration not stated) are within 1.5-fold of each other in half-life: 4.99 min for the first, 4.73 min for the second.

First: CCCCN(C)C(=O)c1c(C)sc2ccn(CCC)c(=O)c12
Second: CC(=O)c1c(C)[nH]c(C(=O)N(C)C)c1C
The half-life of the first is lower: 13.3 min for the first, over 30 min for the second.

First: O=c1cc(CN2CCCN(c3ccc(C(F)(F)F)cn3)CC2)nc2ccccn12
Second: C=CC(=O)N1CCCN(c2cc(NCCC(=O)O)nc(-c3ccccn3)n2)CC1
The half-life of the first is lower: 8.7 min for the first, over 30 min for the second.

Going from `COc1cccc(C(=O)Nc2nc(-c3nnn(-c4cccc(Cl)c4C)c3C)ns2)c1` to `COc1cccc(C(=O)Nc2nnc(S(=O)(=O)N3CCOCC3)s2)c1`, the half-life rises from 18.6 min to over 30 min.

First: Cc1cnc(-c2ccccc2C2COC2)nc1NCc1ccc(-c2cccnc2)cc1
Second: Cc1ccc(N2CCC(CNc3nc(-c4ccccc4C(C)C)ncc3F)CC2)cn1
The half-life of the first is 5-fold higher: 12 min for the first, 2.4 min for the second.

Going from `NCC(=O)Nc1cccc(-c2nn3c(=O)cc(N4CCNCC4)nc3s2)c1` to `Fc1ccc(Nc2nc(-c3ccnc(N4CCCCC4)c3)nc3ccccc23)cc1F`, the half-life falls from over 30 min to 26 min.

First: c1ccc(Nc2cc3c(cn2)CN(Cc2ccc4[nH]ccc4c2)CCN3)cc1
Second: c1ccc(Nc2cc3c(cn2)CN(Cc2c[nH]c4ccccc24)CCN3)cc1
The half-life of the first is 3.6-fold lower: 2.09 min for the first, 7.47 min for the second.

Going from `O=C1CCCC2=C1C(c1ncccc1Br)N=C(Nc1nc3ccccc3o1)N2` (configuration not stated) to `COC(=O)c1ccc2nc(NC3=NC(c4[nH]ncc4Cl)C4=C(CCCC4=O)N3)oc2c1` (configuration not stated), the half-life falls from 11.4 min to 5.9 min (1.9-fold).

First: C[C@@]1(c2ncncc2F)NC(=O)c2cc(-c3cn[nH]c3)ccc21
Second: Cc1ccc(N(C)S(=O)(=O)c2ccc(-c3cnc(C4CC4)o3)cc2)cc1
The half-life of the first is higher: over 30 min for the first, 3.6 min for the second.

First: CCN1CCN(c2ccc3cc(S(=O)(=O)N4CCOCC4)ccc3n2)CC1
Second: O=c1cc(N2CCOCC2)oc2c1ccc1ccccc12
The half-life of the first is lower: 16 min for the first, over 30 min for the second.

Going from `Nc1ncnc2c1ncn2[C@H]1O[C@@H](CO)[C@@H](O)[C@H]1N` to `CCOC(=O)c1ccc(NC(=O)N2Cc3[nH]cnc3C[C@H]2c2nc(C(C)C)no2)cc1`, the half-life falls from over 30 min to 6.65 min.

`CC[C@@H](CO)NC(=O)[C@@H]1C=C2c3cccc4c3c(cn4C)C[C@H]2N(C)C1` and `Cc1nc2ccc(C(=O)N3CCC4(CC3)CC(=O)c3c(cnn3C(C)C)C4)cc2[nH]1` cannot be ordered by half-life: over 30 min for the first, over 30 min for the second.

`CCCCCNc1oc(-c2cccc3ccccc23)nc1C#N` and `Oc1ccc(NCc2ccccc2OCc2ccccc2Cl)cc1` are within 1.5-fold of each other in half-life: 2.1 min for the first, 2.03 min for the second.

First: OC1(CN2CCN(c3ccc(F)c(Cl)c3)CC2)CCCNC1 (configuration not stated)
Second: C=Cc1ccc(C(=O)N2CCCC(CCC(=O)N3CCN(c4ccccn4)CC3)C2)cc1 (configuration not stated)
The half-life of the first is 4-fold higher: 5.96 min for the first, 1.5 min for the second.

Going from `CCOC(=O)c1[nH]c(C)c(CCC(=O)N2CCN(c3cc(C)ccc3C)CC2)c1C` to `COc1ccc(Cn2c(C(=O)O)c(CNCc3ccco3)c3ccc(C)cc32)cc1`, the half-life rises from 2.27 min to over 30 min.

Compared with `O=[S+]([O-])(Nc1ccc2ccccc2c1)c1ccc(NCc2ccc(Cl)cc2O)cc1`, `COc1cccc(CNc2ccc([S+](=O)([O-])Nc3ccccc3)cc2)c1Cl` is 8.8-fold lower in half-life: 21 min for the first, 2.4 min for the second.

Going from `O=C(NC1CCCc2c1cnn2-c1ccc(F)cc1F)c1ccc(C2(C(F)(F)F)N=N2)cc1` (configuration not stated) to `CC1=Nc2cc(C(=O)NCc3ccccc3Cl)ccc2Sc2c(C)ccc(C)c21`, the half-life falls from over 30 min to 1.96 min.

Compared with `Cc1ccc(-c2nnc(Nc3ccc(Br)cc3)c3ccccc23)cc1S(=O)(=O)N1CCN(C)CC1`, `COc1ccc(NC2=C(c3ccc(C(F)(F)F)cc3)C(=O)c3ccccc32)cc1` is 5.8-fold higher in half-life: 1.31 min for the first, 7.57 min for the second.

First: Cc1ccc(S(=O)(=O)Nc2cc3c(cc2C(=O)Nc2nc(-c4ccccc4)cs2)OCO3)cc1
Second: CS(=O)(=O)c1ccc2nc(NC(=O)C3CC3)sc2c1
The half-life of the first is lower: 6.7 min for the first, over 30 min for the second.

`COc1ccc(-n2nc(C)c([C@@H]3C=C[C@@H](NCc4ccc(F)cc4)C3)c2C)cc1` and `C=C1[C@@H](C)C2[C@H](Cc3ccccc3)NC(=O)[C@@]23C(/C=C/C[C@H](C)C[C@@](C)(O)/C=C/[C@@H]3OC(C)=O)[C@@H]1O` (some centres not stated) are within 1.5-fold of each other in half-life: 6.66 min for the first, 5.2 min for the second.
